Results on 19 compounds are retold here after US20220169654A1, “New Organic Compounds” (Servier Pharmaceuticals LLC, priority 2020, published 2022).

One experiment has as its target T1, MAT2A homodimer (Homo sapiens, UniProt P31153).
T1 construct: inferred from Ni sepharose purification with imidazole elution; made in house; host or cells: Sf9 insect cells, baculovirus (Bac to Bac, pFASTBAC1)
As to the kind of experiment: MAT2A inhibition (biochemical, liberated phosphate, PiColorLock Gold). To be noted: recombinant MAT2A homodimer; IC50 bin with Max Inh.; read-out: Enzyme Inhibition Bin. Summed up:
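Enzyme at 4 μg/mL and compound equilibrated 60 min at 25 °C, then 60 min reaction after adding substrate mix (500 μM ATP, 400 μM methionine). Released phosphate quantified by colorimetric kit against a phosphate standard curve to give IC50. Secondary format used 1 μg/mL enzyme with 5 h incubation.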

Experiment [1] has as its system SAM in HCT116 human colon carcinoma cell line with MTAP gene deleted (MTAP −/−). Put plainly: Cellular assay of target engagement (SAM), LC-MS/MS, 72 hrs. The format is cell-based. To be noted: HCT-116, IC50 bin with Max Inh., read-out: Cell 72 h SAM Inhibition (MTAP −/−). Summed up:
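SAM levels were quantified by LC-MS/MS (m/z 399.2→250.1, d3-SAM internal standard) from cold methanol/acetic acid extracts, yielding IC50. Compound was applied as a 10-point 3-fold series for 72 hrs to MTAP −/− HCT116 cells seeded 24 hours before.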

The subject of another experiment is HCT116 MTAP−/−. As to the kind of experiment: Inhibition of cellular proliferation, 4 days, Cell Titer Glo, HCT116 MTAP−/−. The format is cell-based. To be noted: Homo sapiens, HCT-116, 96 h, IC50 bin with Max Inh., read-out: 4 Day Relative Growth Inhibition (MTAP −/−). Summed up:
(§1)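 IC50 derived from blank-corrected ATP luminescence (Cell Titer Glo) expressed relative to within-plate 0.2% DMSO wells. Compound, as a 10-point 3-fold series, was added 24 h after seeding the MTAP+/+ or MTAP−/− HCT116 cells and incubated 4 days at 37° C./5% CO2.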

The subject of the next experiment is HCT116 MTAP+/+. Put plainly: Inhibition of cellular proliferation, 4 days, Cell Titer Glo, HCT116 MTAP+/+. The format is cell-based. Conditions: Homo sapiens, HCT-116, 96 h, IC50 bin with Max Inh., read-out: 4 Day Relative Growth Inhibition (MTAP +/+). A digest of the protocol:
as §1

T1 sequence (P31153 whole entry): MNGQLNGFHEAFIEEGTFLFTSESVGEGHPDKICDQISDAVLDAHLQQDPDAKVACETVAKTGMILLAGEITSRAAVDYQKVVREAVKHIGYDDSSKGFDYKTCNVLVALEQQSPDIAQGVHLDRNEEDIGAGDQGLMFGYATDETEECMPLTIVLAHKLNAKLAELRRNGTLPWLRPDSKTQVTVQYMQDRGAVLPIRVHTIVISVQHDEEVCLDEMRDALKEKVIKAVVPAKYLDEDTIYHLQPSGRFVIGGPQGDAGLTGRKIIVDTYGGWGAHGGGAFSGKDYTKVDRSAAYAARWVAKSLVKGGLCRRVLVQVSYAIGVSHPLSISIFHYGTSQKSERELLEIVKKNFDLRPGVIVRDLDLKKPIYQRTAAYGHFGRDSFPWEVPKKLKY

In the case of `Cn1cc2cc(-n3nc4[nH]c(=O)n(CC5CC5)c4c(-c4ccc(C5CC5)nc4)c3=O)ccc2n1` [Example 203, 5-(cyclopropylmethyl)-4-(6-cyclopropylpyridin-3-yl)-2-(2-methyl-2H-indazol-5-yl)-2,7-dihydro-3H-imidazo[4,5-c]pyridazine-3,6(5H)-dione], the IC50 is under 100 nM on MAT2A homodimer, under 100 nM in experiment [1], under 100 nM in the experiment on HCT116 MTAP−/− and 100 to 1000 nM in the experiment with HCT116 MTAP+/+.
For the compound `Cn1cc2cc(-n3nc4[nH]c(=O)n(CC5CC5)c4c(-c4ccc(C5CC5)cc4)c3=O)ccc2n1` [Example 204, 5-(cyclopropylmethyl)-4-(4-cyclopropylphenyl)-2-(2-methyl-2H-indazol-5-yl)-2,7-dihydro-3H-imidazo[4,5-c]pyridazine-3,6(5H)-dione], the IC50 is under 100 nM on MAT2A homodimer, under 100 nM in experiment [1], under 100 nM with HCT116 MTAP−/− and over 1000 nM in the experiment on HCT116 MTAP+/+.
Turning to `Cn1cc2cc(-n3nc4[nH]c(=O)n(CC5CC5)c4c(-c4ccc(Cl)cc4)c3=O)ccc2n1` [Example 205, 4-(4-chlorophenyl)-5-(cyclopropylmethyl)-2-(2-methyl-2H-indazol-5-yl)-2,7-dihydro-3H-imidazo[4,5-c]pyridazine-3,6(5H)-dione], the IC50 at MAT2A homodimer is under 100 nM; in experiment [1] it was under 100 nM; with HCT116 MTAP−/− it was 100 to 1000 nM; in the experiment on HCT116 MTAP+/+, over 1000 nM.
Regarding `[2H]C([2H])([2H])Oc1ccc(-c2c(=O)n(-c3ccc4nn(C)cc4c3)nc3[nH]c(=O)n(CC4CC4)c23)cc1` [Example 206, 5-(cyclopropylmethyl)-4-(4-(methoxy-d3)phenyl)-2-(2-methyl-2H-indazol-5-yl)-2,7-dihydro-3H-imidazo[4,5-c]pyridazine-3,6(5H)-dione], the IC50 on MAT2A homodimer is under 100 nM; in experiment [1], under 100 nM; in the experiment with HCT116 MTAP−/−, 100 to 1000 nM; in the experiment on HCT116 MTAP+/+, over 1000 nM.
With `Cc1ccc(-c2c(=O)n(-c3ccc4nn(C)cc4c3)nc3[nH]c(=O)n(CC4CC4)c23)cn1` [Example 207, 5-(cyclopropylmethyl)-2-(2-methyl-2H-indazol-5-yl)-4-(6-methylpyridin-3-yl)-2,7-dihydro-3H-imidazo[4,5-c]pyridazine-3,6(5H)-dione], the IC50 is under 100 nM at MAT2A homodimer, under 100 nM in experiment [1], 100 to 1000 nM with HCT116 MTAP−/− and over 1000 nM with HCT116 MTAP+/+.
Regarding `Cn1cc2cc(-n3nc4nnn(CC5CC5)c4c(-c4ccc(OC(F)F)cc4)c3=O)ccc2n1` [Example 208, 1-(cyclopropylmethyl)-7-(4-(difluoromethoxy)phenyl)-5-(2-methyl-2H-indazol-5-yl)-1,5-dihydro-6H-[1,2,3]triazolo[4,5-c]pyridazin-6-one], the IC50 at MAT2A homodimer was under 100 nM; in experiment [1], under 100 nM; with HCT116 MTAP−/−, 100 to 1000 nM; in the experiment with HCT116 MTAP+/+ it was 100 to 1000 nM.
For `Cn1cc2cc(-n3nc4nnn(CC5CC5)c4c(-c4ccc(C5CC5)cc4)c3=O)ccc2n1` [Example 209, 1-(cyclopropylmethyl)-7-(4-cyclopropylphenyl)-5-(2-methyl-2H-indazol-5-yl)-1,5-dihydro-6H-[1,2,3]triazolo[4,5-c]pyridazin-6-one], the IC50 at MAT2A homodimer was under 100 nM; in experiment [1], 100 to 1000 nM; in the experiment on HCT116 MTAP−/− it was 100 to 1000 nM; in the experiment with HCT116 MTAP+/+, over 1000 nM.
Turning to `Cn1cc2cc(-n3nc4nnn(CC5CC5)c4c(-c4ccc(C5CC5)nc4)c3=O)ccc2n1` [Example 210, 1-(cyclopropylmethyl)-7-(6-cyclopropylpyridin-3-yl)-5-(2-methyl-2H-indazol-5-yl)-1,5-dihydro-6H-[1,2,3]triazolo[4,5-c]pyridazin-6-one], the IC50 was 100 to 1000 nM on MAT2A homodimer, over 1000 nM in experiment [1], 100 to 1000 nM in the experiment with HCT116 MTAP−/− and over 1000 nM with HCT116 MTAP+/+.
Consider `Cc1nn(CC2CC2)c2c(-c3ccc(C4CC4)nc3)c(=O)n(-c3ccc4nn(C)cc4c3)nc12` [Example 211, 1-(cyclopropylmethyl)-7-(6-cyclopropylpyridin-3-yl)-3-methyl-5-(2-methyl-2H-indazol-5-yl)-1H,5H,6H-pyrazolo[4,3-c]pyridazin-6-one], for which the IC50 on MAT2A homodimer was under 100 nM; in experiment [1], under 100 nM; in the experiment on HCT116 MTAP−/−, under 100 nM; in the experiment on HCT116 MTAP+/+, over 1000 nM.
Turning to `Cc1nn(CC2CC2)c2c(-c3ccc(OC(F)F)cc3)c(=O)n(-c3ccc4nn(C)cc4c3)nc12` [Example 212, 1-(cyclopropylmethyl)-7-(4-(difluoromethoxy)phenyl)-3-methyl-5-(2-methyl-2H-indazol-5-yl)-1,5-dihydro-6H-pyrazolo[4,3-c]pyridazin-6-one], the IC50 (at MAT2A homodimer; in experiment [1]; in the experiment with HCT116 MTAP−/−; with HCT116 MTAP+/+) was under 100 nM throughout.
Consider `Cc1nn(CC2CC2)c2c(-c3ccc(C4CC4)cc3)c(=O)n(-c3ccc4nn(C)cc4c3)nc12` [Example 213, 1-(cyclopropylmethyl)-7-(4-cyclopropylphenyl)-3-methyl-5-(2-methyl-2H-indazol-5-yl)-1,5-dihydro-6H-pyrazolo[4,3-c]pyridazin-6-one], for which the IC50 on MAT2A homodimer was under 100 nM; in experiment [1], under 100 nM; in the experiment on HCT116 MTAP−/−, under 100 nM; in the experiment on HCT116 MTAP+/+ it was over 1000 nM.
As for `COc1ccc(-c2c(=O)n(-c3ccc4nn(C)cc4c3)nc3c(C)nn(CC4CC4)c23)cc1` [Example 214, 1-(cyclopropylmethyl)-7-(4-methoxyphenyl)-3-methyl-5-(2-methyl-2H-indazol-5-yl)-1,5-dihydro-6H-pyrazolo[4,3-c]pyridazin-6-one], the IC50 on MAT2A homodimer is under 100 nM; in experiment [1], under 100 nM; with HCT116 MTAP−/−, under 100 nM; with HCT116 MTAP+/+, 100 to 1000 nM.
For the compound `Cc1nn(CC2CC2)c2c(-c3ccc(Cl)cc3)c(=O)n(-c3ccc4nn(C)cc4c3)nc12` [Example 215, 7-(4-chlorophenyl)-1-(cyclopropylmethyl)-3-methyl-5-(2-methyl-2H-indazol-5-yl)-1,5-dihydro-6H-pyrazolo[4,3-c]pyridazin-6-one], the IC50 was under 100 nM at MAT2A homodimer, under 100 nM in experiment [1], under 100 nM in the experiment with HCT116 MTAP−/− and 100 to 1000 nM in the experiment on HCT116 MTAP+/+.
As for `[2H]C([2H])([2H])Oc1ccc(-c2c(=O)n(-c3ccc4nn(C)cc4c3)nc3c(C)nn(CC4CC4)c23)cc1` [Example 216, 1-(cyclopropylmethyl)-7-(4-(methoxy-d3)phenyl)-3-methyl-5-(2-methyl-2H-indazol-5-yl)-1,5-dihydro-6H-pyrazolo[4,3-c]pyridazin-6-one], the IC50 is under 100 nM at MAT2A homodimer, under 100 nM in experiment [1], under 100 nM in the experiment with HCT116 MTAP−/− and 100 to 1000 nM in the experiment on HCT116 MTAP+/+.
Take `Cc1ccc(-c2c(=O)n(-c3ccc4nn(C)cc4c3)nc3c(C)nn(CC4CC4)c23)cn1` [Example 217, 1-(cyclopropylmethyl)-3-methyl-5-(2-methyl-2H-indazol-5-yl)-7-(6-methylpyridin-3-yl)-1,5-dihydro-6H-pyrazolo[4,3-c]pyridazin-6-one]: the IC50 was under 100 nM at MAT2A homodimer, under 100 nM in experiment [1], under 100 nM in the experiment with HCT116 MTAP−/− and over 1000 nM in the experiment on HCT116 MTAP+/+.
Turning to `Cn1cc2cc(-n3nc4cnn(CC5CC5)c4c(-c4ccc(OC(F)F)cc4)c3=O)ccc2n1` [Example 218, 1-(cyclopropylmethyl)-7-(4-(difluoromethoxy)phenyl)-5-(2-methyl-2H-indazol-5-yl)-1,5-dihydro-6H-pyrazolo[4,3-c]pyridazin-6-one], the IC50 is under 100 nM at MAT2A homodimer, under 100 nM in experiment [1], under 100 nM in the experiment on HCT116 MTAP−/− and 100 to 1000 nM with HCT116 MTAP+/+.
`Cn1cc2cc(-n3nc4cnn(CC5CC5)c4c(-c4ccc(C5CC5)nc4)c3=O)ccc2n1` [Example 219, 1-(cyclopropylmethyl)-7-(6-cyclopropylpyridin-3-yl)-5-(2-methyl-2H-indazol-5-yl)-1,5-dihydro-6H-pyrazolo[4,3-c]pyridazin-6-one]: the IC50 at MAT2A homodimer was under 100 nM; in experiment [1] it was 100 to 1000 nM; with HCT116 MTAP−/−, 100 to 1000 nM; in the experiment on HCT116 MTAP+/+ it was 100 to 1000 nM.
With `[2H]C([2H])([2H])Oc1ccc(-c2c(=O)n(-c3ccc4nn(C)cc4c3)nc3cnn(CC4CC4)c23)cc1` [Example 220, 1-(cyclopropylmethyl)-7-(4-(methoxy-d3)phenyl)-5-(2-methyl-2H-indazol-5-yl)-1,5-dihydro-6H-pyrazolo[4,3-c]pyridazin-6-one], the IC50 on MAT2A homodimer was under 100 nM; in experiment [1], under 100 nM; with HCT116 MTAP−/−, under 100 nM; with HCT116 MTAP+/+, 100 to 1000 nM.
Consider `Cn1cc2cc(-n3nc4cnn(CC5CC5)c4c(-c4ccc(Cl)cc4)c3=O)ccc2n1` [Example 221, 7-(4-chlorophenyl)-1-(cyclopropylmethyl)-5-(2-methyl-2H-indazol-5-yl)-1,5-dihydro-6H-pyrazolo[4,3-c]pyridazin-6-one], for which the IC50 was under 100 nM on MAT2A homodimer, under 100 nM in experiment [1], under 100 nM in the experiment with HCT116 MTAP−/− and 100 to 1000 nM in the experiment on HCT116 MTAP+/+.
